Measured values taken from US20240216357A1 (SICHUAN HUIYU PHARMACEUTICAL CO., LTD., priority 2021, published 2024).
Counter-ions that a name gives are not always drawn. Like-named read-outs stand apart in the source and are kept apart here.

What was measured:
NCI-H1417 cells = test: In vitro cell proliferation detection (CellTiter-Glo, 7 days); format: cell-based; settings: NCI-H1417 cells, 7 days, CellTiter-Glo, read-out: NCI-H1417 proliferation inhibition IC50
LSD1 = LSD1 (Homo sapiens (Human), UniProt O60341); test: LSD1 enzyme activity detection (HTRF); format: biochemical; settings: HTRF, H3K4me1 substrate; read-out: Inhibition of enzymatic activity of LSD1 IC50

| Compound | IC50 (NCI-H1417 cells; Homo sapiens, 168 h) | IC50 (LSD1) | IC50 (NCI-H1417 cells) |
| --- | --- | --- | --- |
| CC(C)(O)C#Cc1ccc(-c2c(O)cc(N3CCC(N)CC3)nc2-c2ccc(C#N)c(F)c2)cc1F [Example 25, 4-(6-(4-aminopiperidin-1-yl)-3-(3-fluoro-4-(3-hydroxy-3-methyl-1-alkynyl-1-yl)phenyl)-4-hydroxypyridin-2-yl)-2-fluorobenzonitrile hydrochloride] | 868 nM | 71.7 nM | – |
| CS(=O)(=O)N1CCN(C(=O)c2cc(CCN[C@@H]3C[C@H]3c3ccc(F)cc3)nc(-c3ccc(-n4cccn4)cc3)c2)CC1 [Example 255, (2-(4-(1H-pyrazol-1-yl)phenyl)-6-(2-(((1R,2S)-2-(4-fluorophenyl)cyclopropyl)amino)ethyl)pyridin-4-yl) (4-(methylsulfonyl)piperazin-1-yl)methanone] | 29.1 nM | 172 nM | – |
| Cc1ccc(-c2c(-c3ccc(C#N)c(F)c3)nc(N3C4CCC3CC(N)C4)n3ccnc23)cc1O (stereo not drawn) [Example 156, 4-(5-(3-amino-8-azabicyclo[3.2.1]octane-8-yl)-8-(3-hydroxy-4-methylphenyl)imidazolo[1,2-c]pyrimidin-7-yl)-2-fluorobenzo nitrile hydrochloride] | 0.447 nM | 0.2 ± 0.06 nM | – |
| N#Cc1ccc(-c2nc(N3CCC(N)CC3)cc(O)c2-c2ccc(OC(F)(F)F)c(F)c2)cc1F [Example 18, 4-(6-(4-aminopiperidin-1-y)-3-(3-fluoro-4-(trifluoromethoxy)phenyl)-4-hydroxypyridin-2-yl)-2-fluorobenzonitrile] | 87.2 nM | 78.3 nM | – |
| Cc1nc(N2CCC(N)CC2)c(C#N)c(-c2ccc(C#N)c(F)c2)c1-c1cc2onc(C)c2cc1F [Example 277, 2-(4-aminopiperidin-1-yl)-4-(4-cyano-3-fluorophenyl)-5-(5-fluoro-3-methylbenzo[d]isoxazol-6-yl)-6-methylnicotinonitrile] | 1.33 nM | 0.39 nM | – |
| COc1ccc(C2CC2NCc2c(OC)cc(N3CCC(N)CC3)nc2-c2ccc(C#N)c(F)c2)cc1F (stereo not drawn) [Example 252] | – | 73.7 nM | > 1000 nM |
| Cc1noc2cc(-c3oc(C(=O)N4C5CCC4CC(N)C5)nc3-c3ccc(C#N)c(F)c3)c(F)cc12 (stereo not drawn) [Example 222, 4-(2-(3-amino-8-azabicyclo[3.2.1]octane-8-carbonyl)-5-(5-fluoro-3-methylbenzo[d]isoxazol-6-yl)oxazol-4-yl)-2-fluorobenzonitrile hydrochloride] | 41 nM | 14.4 nM | – |
| Cc1ccc(-c2c(-c3ccc(C#N)cc3)cc3c(N4CCC[C@@H](N)C4)nncn23)cc1 [Example 4, (R)-4-(1-(3-aminopiperidin-1-yl)-6-(p-tolyl)pyrrolo[1,2-d] [1,2,4]triazine-7-yl)benzonitrile] | 30.4 nM | 2.3 ± 0.74 nM | – |
| Cc1ccc(-c2c(-c3ccc(C#N)cc3)cc3c(N4CC(N)C4)nccn23)cc1 [Example 188, 4-(1-(3-aminoazetidin-1-yl)-6-(p-tolyl)pyrrolo[1,2-a]pyrazin-7-yl)benzonitrile hydrochloride] | > 1000 nM | 35 nM | – |
| COc1ccc(-c2cnc(N3CCC[C@@H](N)C3)c(C#N)c2-c2ccc(C#N)c(F)c2)cc1O [Example 78, (R)-2-(3-aminopiperidin-1-yl)-4-(4-cyano-3-f1uorophenyl)-5-(3-hydroxy-4-methoxyphenyl) nicotinonitrile] | 2.53 nM | 1.6 ± 0.3 nM | – |
| Cc1noc2cc(-c3c(-c4ccc(C#N)c(F)c4)nc(N4CCC(N)CC4)c4c3cnn4C)c(F)cc12 [Example 286, 4-(7-(4-aminopiperidin-1-yl)-4-(5-fluoro-3-methylbenzo[d]isoxazol-6-yl)-1-methyl-1H-pyrazolo [3,4-c]pyridin-5-yl)-2-fluorobenzonitrile] | 4.58 nM | 3.5 nM | – |
| O=C(c1cc(CN[C@@H]2C[C@H]2c2ccc(F)cc2)nc(-c2ccc(-n3ccnn3)cc2)n1)N1CCOCC1 [Example 242] | 2.83 nM | 49.6 nM | – |
| N#Cc1ccc(-c2nc(N3C4CCC3CC(N)C4)n3ccnc3c2-c2cc3[nH]ncc3cc2F)cc1F (stereo not drawn) [Example 173, 4-(5-(3-amino-8-azabicyclo[3.2.1]octane-8-yl)-8-(5-fluoro-1H-indazole-6-yl)imidazolo[1,2-c]pyrimidin-7-yl)-2-fluorobenzonitrile hydrochloride] | 8.15 nM | 0.8 ± 0.2 nM | – |
| N#CCn1ncc2cc(F)c(-c3sc(C(=O)N4C5CCC4CC(N)C5)nc3-c3ccc(C#N)c(F)c3)cc21 (stereo not drawn) [Example 221, 4-(2-(3-amino-8-azabicyclo[3.2.1]octan-8-carbonyl)-5-(1-(cyanomethyl)-5-fluoro-1H-indazol-6-yl)thiazol-4-yl)-2-fluorobenzonitrile hydrochloride] | 29.8 nM | 10 ± 3.2 nM | – |
| COc1ccc(-c2c(-c3ccc(C#N)c(F)c3)nc(N3CCC(N)CC3)c(C)c2OC)cc1O [Example 101, 4-(6-(4-aminopiperidin-1-yl)-3-(3-hydroxy-4-methoxyphenyl)-4-methoxy-5-methylpyridin-2-yl)-2-fluorobenzonitrile] | 0.917 nM | 1 ± 0.2 nM | – |
| COc1ccc(-c2c(O)cc(N3CCC(N)CC3)nc2-c2ccc(C#N)c(F)c2)cc1N [Example 44] | 28.9 nM | 12.8 ± 4.6 nM | – |
| COc1ccc(-c2c(C(N)=O)nc(N3CCC(N)CC3)nc2-c2ccc(C#N)c(F)c2)cc1F [Example 110, 2-(4-aminopiperidin-1-yl)-6-(4-cyano-3-fluorophenyl)-5-(3-fluoro-4-methoxyphenyl)pyrimidine-4-carboxamide hydrochloride] | 42.6 nM | 3.2 ± 0.37 nM | – |
| COc1ccc(-c2cnc(N3CCC(N)C(F)C3)c(C#N)c2-c2ccc(C#N)c(F)c2)cc1O (stereo not drawn) [Example 77, 2-(4-amino-3-fluoropiperidin-1-yl)-4-(4-cyano-3-fluorophenyl)-5-(3-hydroxy-4-methoxyphenyl) nicotinonitrile] | 2.19 nM | 2.4 ± 0.9 nM | – |
| COc1ccc(Nc2c(O)cc(N3CCC(N)CC3)nc2-c2ccc(C#N)c(F)c2)cc1F [Example 64, 4-(6-(4-aminopiperidin-1-yl)-3-(3-fluoro-4-methoxyphenyl)amino)-4-hydroxypyridin-2-yl)-2-flu orobenzonitrile hydrochloride] | 344 nM | – | – |

Continued, in another order:

| IC50 (NCI-H1417 cells; Homo sapiens, 168 h) | IC50 (LSD1) | Compound | IC50 (NCI-H1417 cells) |
| --- | --- | --- | --- |
| 1.24 nM | 0.5 ± 0.1 nM | Cc1ccc(-c2c(-c3ccc(C#N)c(F)c3)nc(N3CC4CCC3CC4N)n3ccnc23)cc1O (stereo not drawn) [Example 168, 4-(5-(5-amino-2-azabicyclo [2.2.2]octane-2-yl)-8-(3-hydroxy-4-methylphenyl)imidazolo[1,2-c]pyrimidin-7-yl)-2-fluorobenzo nitrile] | – |
| 135 nM | 34.4 nM | CC(C)(O)Cn1ncc2cc(F)c(-c3c(-c4ccc(C#N)c(F)c4)nc(N4CCC(N)CC4)n4ccnc34)cc21 [Example 127, 4-(5-(4-aminopiperidin-1-yl)-8-(5-fluoro-1-(2-hydroxy-2-methylpropyl)-1H-indazo-6-yl)imidazolo[1,2-c]pyrimidin-7-yl)-2-fluorobenzonitrile hydrochloride] | – |
| 0.214 nM | 0.198 nM | N#Cc1ccc(-c2nc(N3CCC(N)CC3)n3ccnc3c2-c2ccc(Cl)c(O)c2)cc1F [Example 142, 4-(5-(4-aminopiperidin-1-yl)-8-(4-chloro-3-hydroxyphenyl)imidazolo[1,2-c]pyrimidin-7-yl)-2-fluorobenzonitrile formate] | – |
| 0.29 nM | 1.2 ± 0.2 nM | Cc1ccc(-c2c(-c3ccc(C#N)c(F)c3)nc(N3CC4CC3CC4N)n3ccnc23)cc1O (stereo not drawn) [Example 160, 4-(5-(5-amino-2-azadicyclo[2. 2.1]heptan-2-yl)-8-(3-hydroxy-4-methylphenyl)imidazolo[1,2-c]pyrimidin-7-yl)-2-fluorobenzonitrile hydrochloride] | – |
| 0.959 nM | 0.5 ± 0.1 nM | N#Cc1ccc(-c2nc(N3CCC(N)CC3)n3ccnc3c2-c2ccc(C(F)(F)F)c(O)c2)cc1F [Example 154, 4-(5-(4-aminopiperidin-1-yl)-8-(3-hydroxy-4-(trifluoromethyl)phenyl)imidazolo [1,2-c]pyrimidin-7-yl)-2-fluorobenzonitrile carboxylate] | – |
| 88.2 nM | 64 ± 20 nM | COc1ccc(-c2c(O)cc(N3CC[C@@H](N)[C@H](OC)C3)nc2-c2ccc(C#N)c(F)c2)cc1F [Example 51, 4-(6-((3R,4R)-4-amino-3-methoxypiperidin-1-yl)-3-(3-fluoro-4-methoxyphenyl)-4-hydroxypyridin-2-yl)-2-fluorobenzonitrile] | – |
| 5.82 nM | 2.8 ± 1 nM | Cc1ccc(-c2c(-c3ccc(C#N)c(F)c3)nc(N3CC4CCC(C3)C4N)n3ccnc23)cc1O (stereo not drawn) [Example 159, 4-(5-(8-amino-3-azabicyclo[3. 2.1]octane-3-yl)-8-(3-hydroxy-4-methylphenyl)imidazolo[1,2-c]pyrimidin-7-yl)-2-fluorobenzonitrile] | – |
| 12.4 nM | 23.5 nM | CC1(N)CCN(c2nc(-c3ccc(C#N)c(F)c3)c(-c3ccc(OC(F)(F)F)c(O)c3)c3nccn23)CC1 [Example 152, 4-(5-(4-amino-4-methylpiperidin-1-yl)-8-(3-hydroxy-4-(trifluoromethoxy)phenyl)imidazolo [1,2-c]pyrimidin-7-yl)-2-fluorobenzonitrile] | – |
| > 1000 nM | 19.4 nM | N#Cc1ccc(-c2nc(N3CCC(N)CC3)cc(O)c2-c2ccn3ccnc3c2)cc1F [Example 17, 4-(6-(4-aminopiperidin-1-yl)-4-hydroxy-3-(imidazolo[1,2-a]pyridin-7-yl)pyridin-2-yl)-2-fluorobenzonitrile hydrochloride] | – |
| 9.77 nM | 0.5 ± 0.4 nM | COc1ccc(-c2c(-c3ccc(C#N)c(F)c3)nc(N3CCC(N)CC3)c3nc[nH]c23)cc1O [Example 271, 4-(4-(4-aminopiperidin-1-yl)-7-(3-hydroxy-4-methoxyphenyl)-1H-imidazolo[4,5-c]pyridin-6-yl)-2-fluorobenzonitrile hydrochloride] | – |
